From US12287322B2, “Composition for detecting hydrogen sulfide or measuring hydrogen sulfide concentration and composition comprising same as effective ingredient for diagnosing or imaging in vivo inflammation, tissues having hypoxic damage, or cancer” (SEOUL NATIONAL UNIVERSITY R&DB FOUNDATION, priority 2018, dated 2025)

Tests used:
[1] = Reaction of ^99mTc-alpha-hydroxy acid with NaHS, insoluble substances by ITLC; conditions: 0.4 mM NaHS in 0.2 M sodium phosphate buffer pH 7.4, 37° C., 15 minutes; radioactivity at origin, ITLC saline
Source text: Then, ITLC was developed with physiological saline to determine the percentage of the radioactivity remaining at the origin.

[2] = Reaction of ^99mTc-alpha-hydroxy acid with sodium sulfate, insoluble substances by ITLC; conditions: 0.4 mM sodium sulfate in 0.2 M sodium phosphate buffer pH 7.4, 37° C., 15 minutes
Method: (§1) Particularly, the ^99mTc-alpha-hydroxy acid prepared in Example 1 was diluted 5 times with physiological saline, and then 100 μL of each diluent was taken, to which 100 μL of each of 0.2 M sodium phosphate buffer (pH 7.4) containing 0.4 mM NaHS, 4 mM glutathione, 0.4 mM cysteine, 0.4 mM sodium sulfite, 0.4 mM sodium sulfate, 0.4 mM sodium thiosulfate, and 0.4 mM NONOate (NO generating reagent) was added, followed by reaction at 37° C. for 15 minutes. Then, ITLC was developed with physiological saline to determine the percentage of the radioactivity remaining at the origin.

[3] = Reaction of ^99mTc-alpha-hydroxy acid with sodium thiosulfate, insoluble substances by ITLC; conditions: 0.4 mM sodium thiosulfate in 0.2 M sodium phosphate buffer pH 7.4, 37° C., 15 minutes
Method: as §1

[4] = Reaction of ^99mTc-alpha-hydroxy acid with cysteine, insoluble substances by ITLC; conditions: 0.4 mM cysteine in 0.2 M sodium phosphate buffer pH 7.4, 37° C., 15 minutes
Method: as §1

[5] = Reaction of ^99mTc-alpha-hydroxy acid with sodium sulfite, insoluble substances by ITLC; conditions: 0.4 mM sodium sulfite in 0.2 M sodium phosphate buffer pH 7.4, 37° C., 15 minutes
Method: as §1

[6] = Reaction of ^99mTc-alpha-hydroxy acid with glutathione, insoluble substances by ITLC; conditions: 4 mM glutathione in 0.2 M sodium phosphate buffer pH 7.4, 37° C., 15 minutes
Method: as §1

[7] = Reaction of ^99mTc-alpha-hydroxy acid with NO (NONOate), insoluble substances by ITLC; conditions: 0.4 mM NONOate in 0.2 M sodium phosphate buffer pH 7.4, 37° C., 15 minutes
Method: as §1

[8] = ^99mTc-alpha-hydroxy acid in phosphate buffer alone, insoluble substances by ITLC; conditions: 0.2 M sodium phosphate buffer pH 7.4 alone, 37° C., 15 minutes
Method: as §1

[9] = system: inflamed tissue where hydrogen sulfide was generated (carrageenan hind paw); experiment: SPECT-CT imaging of carrageenan-inflamed tissue where hydrogen sulfide is produced; format: in vivo; conditions: mouse, 300 μCi tail vein 4 hours after 1% carrageenan, SPECT-CT after 1 hour, FIG. 10
Method: It has been reported that hydrogen sulfide was generated in the inflamed tissue induced by the administration of carrageenan (Li L, Bhatia M, Zhu Y Z, et al. FASEB J. (2005) 19:1196-1198; Bhatia M, Sidhapuriwala J, Moochhala S M, et al. Br J Pharmacol. (2005) 145:141-144.). Accordingly, the following experiment was performed to confirm whether the imaging of the inflamed tissue where hydrogen sulfide was generated was possible when the ^99mTc-alpha-hydroxy acid according to the present invention was administered.
30 μL of physiological saline containing 1% carrageenan was injected into the right hind paw of a mouse, and 30 μL of physiological saline was injected into the left hind paw of the mouse.

[10] = system: reperfused brain after middle cerebral artery occlusion; experiment: Autoradiography of brain reperfused after middle cerebral artery occlusion; format: in vivo, mouse; conditions: 2 hours occlusion, 12 hours recovery, 1 mCi tail vein, brain extracted after 1 hour, compared with TTC staining, FIG. 11
hydrogen sulfide in paw = experiment: Hydrogen sulfide concentration in inflamed area (DMPD/FeCl3, absorbance 665 nm); format: in vivo; conditions: mouse paw, 4 hours after 30 μL 1% carrageenan, n=3
Method: In order to confirm that the concentration of hydrogen sulfide in the inflamed area was higher than the concentration of hydrogen sulfide in the normal area, it was measured as follows using a method described in the literature (A D Ang, A Konigstorfer, G I Giles, M Bhatia. Adv Biol Chem, 2012, 2:360-365). After 4 hours, the mouse was euthanized with carbon dioxide gas, and the ankle was cut and the weight was measured. 500 μL of 50 mM sodium carbonate buffer (pH 9) chilled with ice was added thereto and homogenized for 30 seconds gently, 1 minute 30 seconds moderately, and 30 seconds vigorously. After centrifugation at 1200×g for 5 minutes, the supernatant was obtained, to which 400 μL of a mixed solution of 350 μL of 1% zinc acetate and 50 μL of 1.5 M sodium hydroxide was added, followed by mixing well. After centrifugation at 1200×g for 5 minutes, the supernatant was discarded. To the precipitated pellet, 1 mL of distilled water saturated with nitrogen was added, which was mixed by vortexing for 1 minute. After centrifugation at 1200×g for 5 minutes, the supernatant was discarded. […] After reacting at room temperature for 15 minutes, absorbance was measured at 665 nm. A standard quantification curve was drawn with a standard sample measured by the same method, and then quantified.

Compound	percentage of insoluble substances produced after reaction with NaHS [1] [%]	percentage of insoluble substances produced after reaction with Sodium sulfate [2] [%]	percentage of insoluble substances produced after reaction with Thiosodium sulfate [3] [%]	percentage of insoluble substances produced after reaction with Cysteine [4] [%]	percentage of insoluble substances produced after reaction with Sodium sulfite [5] [%]	percentage of insoluble substances produced after reaction with Glutathione [6] [%]	percentage of insoluble substances produced after reaction with NO [7] [%]	percentage of insoluble substances produced in Buffer [8] [%]	radioactivity of the inflamed area versus area administered with physiological saline [9]	distribution of radioactivity in brain sections [10]	concentration of hydrogen sulfide in the paws (hydrogen sulfide in paw) [µM]
^99mTc-glucarate	37.0±4.7	4.6 ± 0.5	5.6 ± 0.3	6.4 ± 1.7	5.5 ± 0.8	13.4 ± 2.7	4.7 ± 0.7	4.6 ± 0.5			
^99mTc-citrate	8.3±1.0	8.0 ± 0.5	5.5 ± 0.1	2.1 ± 0.2	7.8 ± 0.7	7.5 ± 1.7	5.6 ± 0.4	4.0 ± 0.1			
O=C1[O][99Tc-]2(=[O])([O]C(=O)C(C(O)C(O)C(O)C(O)CO)[O]2)[O]C1C(O)C(O)C(O)C(O)CO (stereo not shown) [^99mTc-glucoheptonate]									clearly higher		
O=C1[O][99Tc-]2(=[O])([O]C(=O)[C@@H]([C@@H](O)[C@H](O)[C@H](O)CO)[O]2)[O][C@@H]1[C@@H](O)[C@H](O)[C@H](O)CO [^99mTc-gluconate]		7.9 ± 1.5	6.5 ± 1.0	5.1 ± 0.6	6.4 ± 0.7	12.0 ± 2.4	6.1 ± 1.0	8.7 ± 1.8	clearly higher	ingested at the boundary area rather than completely dead brain tissues and the normal brain tissues	
OC[C@H]1OC(O)[C@H]([18F])[C@@H](O)[C@@H]1O (stereo partly shown) [[^18F] FDG, reference compound]										almost overlapped with the red area stained by TTC	
carrageenan											43.7 ± 3.5
